In data set [1] the test system is MCF-7. Description: SRB-based cytotoxicity assay. It counts as cell-based, human. The following applies: Homo sapiens, MCF7; MCF-7; SRB; Table 2. The protocol:
(§1) For (anti)proliferation assays, 4,000-5,000 cells/well of the 96-well clustered dish were incubated for 16 hours, as described previously (Hu et al., 2008; Skehan et al., 1990). After 16 hours, culture medium was replaced with fresh medium containing different dilutions of test compounds dissolved in DMSO. Some wells were treated with 100 μl of 10% trichloroacetic acid (TCA) as a negative control and sham (medium with dimethyl sulfoxide; DMSO) treated cells were used as a positive control. After 72 hours post-incubation, medium was removed and cells were fixed with 10% TCA at 4° C. for 1 hour. TCA was removed and cells were washed with cold tap water, and plate was air-dried, followed by addition of 50 μl of 0.4% SRB staining solution to each well. After 30 minutes incubation, SRB staining solution was removed. Cells were washed with 1% acetic acid solution, and then washed with tap water to remove unbound staining solution, followed by air-drying. 200 μl of 10 mM (pH10.5) trizma base buffer was added to each well to solubilise macromolecules. SRB stained macromolecules were determined at a 540 nm wavelength using an automated plate reader (Synergy H4 Hybrid Multi-Mode Microplate Reader, BioTek, Winooski, Vt.). Cell growth (inhibition) was calculated by the following formula:
(§2) % cells proliferation=[(AT−CT)/(ST−CT)]×100
(§3) wherein AT=absorbance of treated cells, CT=absorbance of negative control cells, and ST=absorbance of sham treated cells. IC50 values were calculated from sigmoidal dose-response curves generated by two independent biological replicates, with quadruplicate in each set by using Graph Pad Prism v.5.04 software. […] The combinational index (CI) was calculated as described previously (Chou 2006). If the CI values were less than, equal to or more than 1, it indicates a synergistic, additive or antagonistic effect respectively (Chou 2006). CI values were determined from four independent experiments.

Data set [2] deals with MDA-MB-231. As to the kind of experiment: SRB-based cytotoxicity assay. It counts as cell-based, human. The settings on record: for IC50: Homo sapiens, MDA-MB-231, SRB, Table 2; for Cell survival rate: MDA-MB231. The method, then: as §1, §2, §3
The subject of data set [3] is MDA-MB-468. Description: SRB-based cytotoxicity assay. It counts as cell-based, human. The settings on record: for IC50: Homo sapiens, MDA-MB-468, SRB, Table 2. The method, then:
as §1, §2, §3

In data set [4] the test system is A549 (lung). Description: SRB-based cytotoxicity assay. Type of data set: cell-based. The settings on record: Homo sapiens, 72 hours. In short, it runs like this: (§4)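 Following a 16 h settling period, medium containing compound was added for 72 h. Proliferation was then quantified from absorbance at 540 nm of SRB-stained protein, normalised between TCA-treated and sham DMSO controls, and fitted to obtain IC50.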

Data set [5] relates to HEK293T (kidney). Description: SRB-based cytotoxicity assay. Type of data set: cell-based. The following applies: Homo sapiens, HEK-293T, 72 hours. In short, it runs like this:
as §4

Data set [6] has as its system K562. As to the kind of experiment: SRB-based cytotoxicity assay. Type of data set: cell-based. The settings on record: Homo sapiens, Table 2. Summed up: as §4
In data set [7] the test system is NCI-H1975 (lung). As to the kind of experiment: SRB-based cytotoxicity assay. It counts as cell-based. The settings on record: Homo sapiens, 72 hours. In short, it runs like this: as §4
The test system of data set [8] is T98G (brain). As to the kind of experiment: SRB-based cytotoxicity assay. The settings on record: Homo sapiens, 72 hours. Type of data set: cell-based. Summed up:
as §4

Data set [9] relates to U87MG (brain). As to the kind of experiment: SRB-based cytotoxicity assay. The settings on record: Homo sapiens, U-87 MG, 72 hours. Type of data set: cell-based. In short, it runs like this: as §4
Data set [10] concerns UC3 (Bladder). As to the kind of experiment: SRB-based cytotoxicity assay. It counts as cell-based. The following applies: 72 hours. Summed up: as §4
The subject of data set [11] is MDA-MB-231. Description: Immunofluorescent staining: centrosomes and chromosome segregation. Type of data set: cell-based, human. The settings on record: for ACS (abnormal chromosome segregation) / Monopolar centrosome: MDA-MB-231, 3 μM. The method, then: Cells on coverslips placed on the bottom of 35 mm tissue culture plates or 6-well clustered dishes were treated for 12-24 hours with the CTR compounds to be tested. Subsequently, the cells were fixed with 100% methanol for 15 minutes and washed with 1×PBS three times. Cells were then “blocked” with 3% BSA or 1% (v/v) FBS plus 1×PBST (1×PBS buffer containing 0.1% (v/v) Triton X-100 or 0.2% Tween 20), and incubated overnight at 4° C. with primary antibodies, with gentle agitation. Unbound primary antibodies were washed off with PBST, and a secondary antibody was added for 1 hour in the dark. Secondary antibodies were conjugated to Alexa 488 or 568. DNA was counterstained with DRAQ5 or DAPI. Subsequently, coverslips were washed three times with 1×PBST for 10 minutes each, followed by mounting them onto slides with 90% glycerol in 1×PBS. Each slide was visualized with a Carl Zeiss 510 Meta laser scanning microscope or an Axioscope. Image analysis was done with an LSM image examiner equipped with the microscopes (Carl Zeiss, Toronto, ON, Canada).
The cancer-specific increase of mitotic cells in response to CTR-17 was correlated with the accumulation of cells with monopolar centrosomes and abnormal chromosome alignment/segregation (FIG. 11, Table 5). Cells were either sham-treated or treated with 3.0 μM CTR-17 for 12 hours or 24 hours, followed by analyses of cell cycle progression, centrosome abnormalities, and chromosome alignment/segregation. […] The mitotic index was determined by fluorescence microscopic analysis of at least 200 cells for each cell type, and data was expressed as percentage mean±S.E.M. of at least two independent experiments.
Asynchronously growing cells were treated with 1 μM CTR-20 for 24 hours, followed by examining cells arrested in mitosis. The percentage of mitotic cells was calculated based on the examination of at least 250-400 cells. Cells treated with 1 μM CTR-20 for 24 hours on coverslips were fixed with ice-cold methanol, immunostained with an α-tubulin antibody, and then counterstained DNA with DRAQ5 prior to observing by florescent microscopy (Table 6). […] Similarly, cells treated with 1 μM CTR-20 accumulated monopolar centrosomes and defective chromosomal alignment and segregation in a cancer-specific manner.

Data set [12] can be described thus: SRB-based cytotoxicity assay. It counts as cell-based. The settings on record: human, MCF-10A cells (non-cancer breast cells); MCF10A; 31.25 nM; 72 hours; read-out: cell viability. In short, it runs like this:
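Cells seeded 16 h, then exposed 72 h to compound dilutions; TCA-fixed, SRB-stained, absorbance at 540 nm. Proliferation normalised to TCA-treated (negative) and DMSO sham (positive) controls; IC50 from sigmoidal curves, two biological replicates in quadruplicate.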

One may read the IC50 as the concentration needed to halve the response being measured. Turning to `COc1ccc2[nH]c(=O)c(/C=C/C(=O)c3ccccc3OC)cc2c1` [CTR-20, (E)-6-Methoxy-3-(3-(2-methoxyphenyl)-3-oxoprop-1-enyl) quinolin-2(1H)-one], the IC50 in data set [1] worked out at 140 ± 60 nM; in data set [2], 120 ± 90 nM; in data set [3], 120 ± 20 nM; in data set [4], 130 ± 40 nM; in data set [5], 190 nM; in data set [6] it was 130 ± 20 nM. The IC50 in data set [7] came out at 390 ± 140 nM; in data set [8], 220 ± 100 nM; in [9] it was 490 ± 130 nM; in data set [10] it was 120 ± 30 nM. For the same compound, the figures for the Cell survival rate in [2] (single agent 0.1 μM), in data set [2] (single agent 0.2 μM) and in data set [2] (single agent 0.4 μM) were 70.86 ± 4.17, 41.07 ± 4.58 and 26.38 ± 4.73, respectively. Moreover, the “ACA/S (%) (abnormal chromosome alignment and segregation)” value in [11] (MB231, 1 μM, 24 hours) is 58.05 ± 6.21%. Also, the “Monopolar (%)” value in data set [11] (MB231, 1 μM, 24 hours) stood at 35.73 ± 5.59%.
Regarding `COc1ccccc1C(=O)/C=C/c1cc2ccccc2[nH]c1=O` [CTR-17, (E)-3-(3-(2-Methoxyphenyl)-3-oxoprop-1-enyl)quinolin-2(1H)-one], the IC50 in [1] came to 520 ± 170 nM; in data set [2] it was 410 ± 20 nM; in data set [3] it was 150 ± 330 nM; in data set [4] it was 410 ± 60 nM; in data set [5], 420 ± 70 nM; in data set [6] it was 150 ± 100 nM. For the same compound, the IC50 in data set [7] worked out at 600 ± 140 nM; in [8] it was 820 ± 90 nM; in data set [9], 760 nM; in data set [10] it was 390 ± 30 nM. Moreover, the “preferentially kill cancer over non-cancer cells” value in data set [3] (MDA-MB-468 versus MCF-10A) is recorded as “up to 26 times”. Also, the “ACS (abnormal chromosome segregation)” value is given as 60.0 ± 10.2% of total mitotic cells in data set [11] (12 h post-treatment) and 55.1 ± 5.7% of total mitotic cells in data set [11] (24 h post-treatment). Moreover, the Monopolar centrosome in data set [11] (12 h post-treatment) is on record as 40.0 ± 10.2% of total mitotic cells; in data set [11] (24 h post-treatment), 44.9 ± 5.7% of total mitotic cells.
The viability is a per cent measure of how many cells are alive, often set against a control. Consider `CCOc1ccccc1C(=O)/C=C/c1cc2ccccc2[nH]c1=O` [CTR-32, (E)-3-(3-(2-ethoxyphenyl)-3-oxoprop-1-enyl)quinolin-2(1H)-one], for which the viability at 72 h, 0.03125 µM in data set [12] turned out to be 87%.
Turning to `COc1ccccc1C(=O)/C=C/c1cc2cccc(OC)c2[nH]c1=O` [CTR-21, (E)-8-methoxy-3-(3-(2-methoxyphenyl)-3-oxoprop-1-enyl) quinolin-2(1H)-one], the viability at 72 h, 0.03125 µM in [12] was 26%.

For the origin of these results see patent US20180344725A1, “QUINOLONE CHALCONE COMPOUNDS AND USES THEREOF” (priority 2015, published 2018).
